Measurements published in patent US20030013660A1, “Dioxolane analogs for improved inter-cellular delivery” (Shire BioChem Inc., priority 2000, published 2003).

Experiments:
CEM/dCK- [1] = assay: MTT or WST-1 assay at 72 hr (24 hr drug exposure, wash, 48 hr); type: cell-based; conditions: for Resistance Factor*: CEM/dCK- versus CCRF-CEM, single experiment; for IC50: read-out: IC50 CEM/dCK- 24 h, MMT or WST-1 at 72 hr, 24 h exposure, single experiment
Procedure: (§1) Exposition of 24hr to drug, washed, and incubated for another 48hr (total of 72hr assay)

CCRF-CEM [2] = assay: as above; type: cell-based
Procedure: as §1

MCF-7 [3] = assay: 3H-TdR incorporation at 72 hr (24 hr drug exposure, wash, 48 hr); type: cell-based, Human; conditions: Homo sapiens, MCF7, read-out: IC50 in μM (3H-TdR incorporation at 72 hr) MCF-7 24 h, MCF-7 Human Breast Carcinoma, 72 hr assay
Procedure: (§2) Exposition of 24 hr to drug, wash, incubated for another 48 hr (total of 72 hr assay)
(§3) (3H-Thymidine Incorporation Assay)

H-460 [4] = assay: as above; type: cell-based, Human; conditions: Homo sapiens, NCI-H460, read-out: IC50 in μM (3H-TdR incorporation at 72 hr) H-460 24 h, H-460 Human Lung Carcinoma, 72 hr assay
Procedure: as §2, §3

SF-268 [5] = assay: as above; type: cell-based, Human; conditions: Homo sapiens, SF-268, read-out: IC50 in μM (3H-TdR incorporation at 72 hr) SF-268 24 h, SF-268 Human Central Nervous System Tumor; 24 h drug exposure, 72 hr assay
Procedure: as §2, §3

CEM/dCK- [6] = assay: as above; type: cell-based; conditions: for IC50: Homo sapiens, CCRF-CEM, read-out: IC50 in μM (3H-TdR incorporation at 72 hr) CEM/dCK- 24 h, CCRF-CEM deoxycytidine kinase-deficient, 24 h drug exposure, 72 hr assay
Procedure: as §2, §3

MCF-7 [7] = assay: MTT assay at 72 hr (24 hr drug exposure, wash, 48 hr); type: cell-based
Procedure: as §1

H-460 [8] = assay: as above; type: cell-based; conditions: Homo sapiens, NCI-H460, read-out: IC50 H-460 24 h, MTT at 72 hr, 24 h exposure, single experiment
Procedure: as §1

SF-268 [9] = assay: as above; type: cell-based; conditions: Homo sapiens, SF-268, read-out: IC50 SF-268 24 h, MTT at 72 hr, 24 h exposure, single experiment
Procedure: as §1

CCRF-CEM [10] = assay: 3H-TdR incorporation at 72 hr (24 hr drug exposure, wash, 48 hr); type: cell-based; conditions: Homo sapiens, CCRF-CEM, read-out: IC50 in μM (3H-TdR incorporation at 72 hr) CCRF-CEM 24 h, CCRF-CEM T-cell Leukemia, 72 hr assay
Procedure: as §2, §3

SF-268 [11] = assay: 3H-TdR (3H-thymidine) incorporation assay at 72 hr; type: cell-based, Human; conditions: 3H-TdR incorporation at 72 hr
CEM/dCK- [12] = assay: 3H-TdR (3H-thymidine) incorporation assay at 72 hr; type: cell-based; conditions: Homo sapiens, CCRF-CEM, read-out: IC50 CEM/dCK- 24 h, 24 h drug exposure, wash, another 48 hr; deoxycytidine kinase-deficient CCRF-CEM
Procedure: Table of IC50 Values (μM) for Controls
as §2, §3

MCF-7 [13] = assay: 3H-TdR (3H-thymidine) incorporation assay at 72 hr; type: cell-based, Human; conditions: 3H-TdR incorporation at 72 hr
H-460 [14] = assay: 3H-TdR (3H-thymidine) incorporation assay at 72 hr; type: cell-based, Human; conditions: 3H-TdR incorporation at 72 hr
[15] = Homo sapiens, CCRF-CEM, read-out: IC50 CCRF-CEM 24 h, MMT or WST-1 at 72 hr, 24 h exposure, single experiment
[16] = Homo sapiens, MCF7, read-out: IC50 MCF-7 24 h, MTT at 72 hr, 24 h exposure, single experiment

| Structure (SMILES) | IC50 (CCRF-CEM [2]; [15]) [µM] | IC50 (MCF-7 [3]) [µM] | IC50 (H-460 [4]) [µM] | IC50 (SF-268 [5]) [µM] | IC50 (CEM/dCK- [6]) [µM] | IC50 (MCF-7 [7]; [16]) [µM] | Resistance Factor* (CEM/dCK- [1]) | IC50 (CEM/dCK- [1]) [µM] | IC50 (H-460 [8]) [nM] | IC50 (SF-268 [9]) [µM] | other results |
| --- | --- | --- | --- | --- | --- | --- | --- | --- | --- | --- | --- |
| CC(C)C[C@H](NC(=O)[C@H](C)N)C(=O)Nc1ccn([C@@H]2CO[C@H](CO)O2)c(=O)n1.O=C(O)C(F)(F)F.O=C(O)C(F)(F)F [Compound 265, 2-(2-AMINO- PROPIONYLAMINO)-4- METHYL-PENTANOIC ACID [1-(2-HYDROXYMETHYL- [1,3]DIOXOLAN-4-YL)-2- OXO-1,2-DIHYDRO- PYRIMIDIN-4-YL]-AMIDE, BIS TRIFLUOROACETIC ACID SALT] | 30 | – | – | – | – | 77 | >3 | > 100 | > 100000 | > 100 | – |
| CC(C)C[C@H](NC(=O)OCc1ccccc1)C(=O)N[C@@H](C)C(=O)N[C@@H](CC(C)C)C(=O)Nc1ccn([C@@H]2CO[C@H](CO)O2)c(=O)n1 [Compound 267, [1-(1-{1-[1-(2- HYDROXYMETHYL- [1,3]DIOXOLAN-4-YL)-2- OXO-1,2-DIHYDRO- PYRIMIDIN-4- YLCARBAMOYL]-3-METHYL- BUTYLCARBAMOYL}- ETHYLCARBAMOYL)-3- METHYL-BUTYL]-CARBAMIC ACID BENZYL ESTER] | 2.9 | – | – | – | – | 34 | >3 | > 10 | 93000 | > 10 | – |
| CC(C)CCCCC(=O)Nc1ccn([C@@H]2CO[C@H](CO)O2)c(=O)n1 [Compound 277, 6-METHYL-HEPTANOIC ACID [1-(2-HYDROXYMETHYL- [1,3]DIOXOLAN-4-YL)-2- OXO-1,2-DIHYDRO- PYRIMIDIN-4-YL]-AMIDE] | 0.48 | – | – | – | – | 0.32 | >208 | > 100 | 2000 | 7.3 | IC50 (SF-268 [11]; Homo sapiens, SF-268, read-out: IC50 SF-268 24 h, 24 h drug exposure, wash, another 48 hr): 210 nM; IC50 (SF-268 [11]; read-out: IC50 SF-268 24 h, 24 h drug exposure, wash, another 48 hr): 190 nM; IC50 (CEM/dCK- [12]): > 100 µM; IC50 (MCF-7 [13]; Homo sapiens, MCF7, read-out: IC50 MCF-7 24 h, 24 h drug exposure, wash, another 48 hr): 13 nM; IC50 (MCF-7 [13]; read-out: IC50 MCF-7 24 h, 24 h drug exposure, wash, another 48 hr): 16 nM; IC50 (H-460 [14]; Homo sapiens, NCI-H460, read-out: IC50 H-460 24 h, 24 h drug exposure, wash, another 48 hr): 200 nM; IC50 (H-460 [14]; read-out: IC50 H-460 24 h, 24 h drug exposure, wash, another 48 hr): 290 nM |

The remaining compounds from weak to strong by IC50 (CCRF-CEM [2]; [15]), led by results:

| IC50 (CCRF-CEM [2]; [15]) [µM] | IC50 (MCF-7 [3]) [µM] | IC50 (H-460 [4]) [µM] | IC50 (SF-268 [5]) [µM] | IC50 (CEM/dCK- [6]) [µM] | IC50 (MCF-7 [7]; [16]) [µM] | Structure (SMILES) | Resistance Factor* (CEM/dCK- [1]) | IC50 (CEM/dCK- [1]) [µM] | IC50 (H-460 [8]) [nM] | IC50 (SF-268 [9]) [µM] | other results |
| --- | --- | --- | --- | --- | --- | --- | --- | --- | --- | --- | --- |
| 4.1 | 5 | 9.7 | 1.6 | > 100 | 36 | CC(C)C[C@H](N)C(=O)Nc1ccn([C@@H]2CO[C@H](CO)O2)c(=O)n1 [Compound 257, 2-AMINO-4-METHYL- PENTANOIC ACID [1-(2- HYDROXYMETHYL- [1,3]DIOXOLAN-4-YL)-2- OXO-1,2-DIHYDRO- PYRIMIDIN-4-YL]-AMIDE] | – | > 100 | – | > 100 | IC50 (CCRF-CEM [2]; read-out: IC50 CCRF-CEM 24 h, MMT or WST-1 at 72 hr, 24 h exposure, single experiment): 5.4 µM; Factor* (Resistance Factor = Ratio of dCK- on Wild-type CCRF-CEM) (CEM/dCK- [6]; ratio of IC50 CEM/dCK- to IC50 CCRF-CEM): >24; IC50 (CCRF-CEM [10]): 4.2 µM; IC50 (MCF-7 [7]; read-out: IC50 MCF-7 24 h, MTT at 72 hr, 24 h exposure, single experiment): 21 µM |
| 0.36 | ≤ 0.0001 | ≤ 0.0001 | 0.00013 | 1.2 | 0.0039 | CCCCC/C=C\C/C=C\CCCCCCCC(=O)Nc1ccn([C@@H]2CO[C@H](CO)O2)c(=O)n1 [Compound 217, OCTADECA-9,12-DIENOIC ACID [1-(2- HYDROXYMETHYL- [1,3]DIOXOLAN-4-YL)-2- OXO-1,2-DIHYDRO- PYRIMIDIN-4-YL]-AMIDE] | 75 | 27 | 11 | 0.12 | – |
